Test results published in US10016500B2, “Poloxamer-based pharmaceutical compositions for treating wounds” (Professional Compounding Centers of America (PCCA), priority 2014, dated 2018).

Tested on: C. albicans ATCC 90028 biofilm
Test: Antifungal biofilm susceptibility testing (Minimum Biofilm Inhibitory Concentration, broth microdilution, CellTiter 96)
Format: cell-based, Candida albicans
Conditions: for Minimum Biofilm Inhibitory Concentration: lowest concentration giving 50% reduction of fungal growth, 48 h at 35° C., combination expressed as concentration of itraconazole
Protocol: Materials: Itraconazole EP Micronized (lot number C149307) and PCCA Formula #10342 (4 g of Itraconazole EP Micronized+37.574 g of Poloxamer composition) were provided by PCCA (Houston, Tex., USA) as powders. Itraconazole and PCCA Formula #10342 were prepared on the day of the assay. Fluconazole and amphotericin B were obtained as powders and stored at 4° C. […] Strain: Candida albicans isolate ATCC 90028 was obtained from American Type Culture Collection (Manassas, Va.), and used in the course of this study. Methods: In order to determine antimicrobial activity of itraconazole and the micronized poloxamer composition against biofilms of Candida albicans, an antifungal biofilm susceptibility testing was developed in conditions where a Minimum Biofilm Inhibitory Concentration (MBIC) of itraconazole within the micronized poloxamer composition, micronized poloxamer excipient, itraconazole, fluconazole and amphotericin B was measured for the C. albicans biofilm according to the conventional NCCLS M27-A broth microdilution method. The testing medium used for growing was RPMI 1640 (American Biorganics, Inc., […].) supplemented with L-glutamine (Sigma Aldrich®). Yeast inocula (100 μL of 1×10^6 cells/mL) were added to each well of 96-well microtiter plates (Corning) and incubated at 37° C. for 48 h. After biofilm formation, medium was aspirated and non-adherent cells were […] (PBS, Sigma Aldrich®). […] A series of sample-free wells and biofilm-free wells were also included to serve as positive and negative controls, respectively. […] Cell viability was determined by using a conventional CellTiter 96® Non-Radioactive Cell Proliferation Assay.

Structure (SMILES)	MBIC	Minimum Biofilm Inhibitory Concentration
C[C@@H]1[C@H](O)[C@@H](C)/C=C/C=C/C=C/C=C/C=C/C=C/C=C/[C@H](O[C@@H]2O[C@H](C)[C@@H](O)[C@H](N)[C@@H]2O)C[C@@H]2O[C@](O)(C[C@@H](O)C[C@@H](O)[C@H](O)CC[C@@H](O)C[C@@H](O)CC(=O)O[C@H]1C)C[C@H](O)[C@H]2C(=O)O [Amphotericin B, amphotericin B]	0.5 µg/mL	0.5 µg/mL
CCC(C)n1ncn(-c2ccc(N3CCN(c4ccc(OCC5COC(Cn6cncn6)(c6ccc(Cl)cc6Cl)O5)cc4)CC3)cc2)c1=O (centres unmarked) [Itraconazole, itraconazole]	–	1024 µg/mL
OC(Cn1cncn1)(Cn1cncn1)c1ccc(F)cc1F [Fluconazole, fluconazole]	> 1024 µg/mL	>1,024 ug/mL
